Where two headings read alike, the source gives them in different places.
Experiments:
[1] = Pharmacokinetic study; type: in vivo, Sprague-Dawley rats; conditions: male, Sprague-Dawley, plasma; rat, 1 mg/kg IV and 5 mg/kg PO dosing (route of value not stated)
Experimental: Animal experiments were performed at Pharmaron, Inc. and animal use was approved by Pharmaron’s Institutional Animal Care and Use Committee (IACUC) in Pharmaron (Pharmaron IACUC, Protocol #PK-M-07182022, #PK-R-06012022, and #ON-CELL-XEN-06012022) following the guidance of AAALAC. Six- to eight-week-old male Sprague-Dawley rats (approximately 200–300 g) obtained from Si Bei Fu Laboratory Animal Technology Co., six- to eight-week-old male CD1 mice (approximately 20–30 g) obtained from Si Bei Fu Laboratory Animal Technology Co., and six- to eight-week-old female BALB/c nude mice (approximately 20–30 g) obtained from Si Bei Fu Laboratory Animal Technology Co., were used in the pharmacokinetic studies. Six- to eight-week-old female BALB/c nude mice (approximately 18–22 g) obtained from Beijing Anikeeper Biotech Co., Ltd. were used in the intracranial PDX study. Animals were housed at 20–25 °C with humidity ranging from 40 to 70% relative humidity, were exposed to 12 h light and dark cycles, and were supplied with food and water ab libitum.
Approximately 0.03 mL of blood was collected from the dorsal metatarsal vein (in the case of CD1 mice), 0.03 mL of blood from the orbit vein (in the case of BALB/c nude mice), or 0.2 mL of blood from the jugular vein (in the case of Sprague-Dawley rats) at each time point. Blood at each sampling point was transferred into a plastic micro centrifuge tube containing K2-EDTA, and collection tubes with blood samples and anticoagulant were inverted several times for proper mixing of the tube contents and placed on ice prior to centrifugation for plasma. Blood samples were centrifuged at 4 °C, 4000g for 5 min to obtain plasma. Samples were stored in a freezer at −75 °C prior to analysis. Concentrations of test articles in the plasma samples were determined using LC-MS/MS and WinNonlin 8.3 (Phoenix) was used for pharmacokinetic calculations. The values obtained were plotted on GraphPad Prism software and are presented as mean ± SD.

[2] = system: NCI-H3255 (EGFR mutation = L858R); assay: CellTiter-Glo cell viability assay; type: cell-based, human; conditions: Homo sapiens, NCI-H3255; 72 h, unadjusted for FBS
Experimental: The NCI-H3255 cell line was obtained from CoBioer. […] NCI-H3255 cells were cultured in BEGM (Lonza) with 10% FBS. […] All cells were cultured in a humidified incubator with 5% CO2 at 37 °C.
Viability assays using A431, HCC827, NCI-H1975, NCI-H3255, Ba/F3 EGFR-del E746_A750/C797S, Ba/F3 EGFR-L858R/C797S, AU565, SK-BR-3, and ZR-75-30 cells were performed at Crown BioScience.

[3] = target: T1, EGFR del E746_A750 (Homo sapiens, UniProt P00533, DEL746-750); assay: KINOMEScan KdELECT Kd determination; type: binding
T1 construct: purchased Eurofins DiscoverX (contract assay)
Experimental: (§2) In vitro kinase activity (inhibitor binding constants (Kd) and biochemical inhibition (IC50’s)) were assessed by Eurofins DiscoverX (Kd determinations) and Eurofins Cerep (biochemical IC50 determinations).

[4] = target: T2, EGFRwt (Homo sapiens, UniProt P00533); assay: KINOMEScan KdELECT Kd determination; type: binding; conditions: wt; read-out: EGFR Kd
T2 construct: purchased Eurofins DiscoverX (contract assay)
Experimental: as §2

[5] = Plasma protein binding by equilibrium dialysis; type: in vitro ADME, mouse
Experimental: (§1) Plasma protein binding and brain tissue binding were determined by Pharmaron, Inc. using the equilibrium dialysis method. […] Following incubation, the samples were analyzed by LC-MS/MS and the concentrations of the compounds were determined in the buffer and plasma solution chambers.

[6] = system: MDR1; assay: MDCKII-MDR1 permeability; type: in vitro ADME, canine; conditions: dog, MDCK-MDR1
Experimental: (§3) A 96-well HTS Transwell plate (Corning) was used for Caco-2 and MDCKII-MDR1 cell seeding. […] Plates were incubated at 37 °C for 2 h, and samples (50 μL) were taken at the beginning and end of the incubation in both the donor and acceptor wells with the assay run in duplicate (n = 2). Samples were analyzed by LC-MS/MS.
(§4) The efflux ratio was determined by using the following equation: [drawing 4] where Papp (B–A) indicates the apparent permeability in the basolateral to apical direction and Papp (A–B) indicates the apparent permeability in the apical to basolateral direction.

[7] = MDCKII-MDR1 permeability; type: in vitro ADME, canine; conditions: dog, MDCK-MDR1, MDCKII-MDR1
Experimental: as §3, §4

[8] = Metabolic stability in liver microsomes; type: in vitro ADME, human; conditions: for Remaining Percentage: human LM
Experimental: (§5) Microsome stability was assessed in duplicate (n = 2) in the presence and absence of nicotinamide adenine dinucleotide phosphate (NADPH) with liver microsomes (0.5 mg/mL) from human (BD Gentest) and Sprague-Dawley rats (BD Gentest). Compounds were incubated in liver microsomes at 1 μM and samples (30 μL) were taken at 0.5, 15, 30, 45, and 60 min time points for analysis by LC-MS/MS. Hepatocyte stability was assessed in duplicate (n = 2) at a working cell density of 0.5 × 10^6 cells/mL with hepatocytes from human (BiolVT), Sprague-Dawley rat (BiolVT), cynomolgus monkey (RILD) or beagle dog (BiolVT). […] The in vitro half-life and intrinsic clearances were determined as previously described.[76]
(§6) In vitro half-life (in vitro t1/2) was determined from the slope value in [drawing 1] where k was determined by linear regression of the natural logarithm of the remaining percentage of the parent drug vs the incubation time curve.

[9] = Metabolic stability in hepatocytes; type: in vitro ADME, human; conditions: for Remaining Percentages: human hepatocytes
Experimental: as §5, §6

[10] = Plasma stability; type: in vitro ADME, Sprague-Dawley rat; conditions: rat plasma
Experimental: Assessment of compounds to determine stability in incubations containing plasma of human (Pharmaron) and Sprague-Dawley rat (IPHASE) was performed by Pharmaron, Inc. using the compound […] approach. Compounds were assessed in duplicate (n = 2) and incubated in plasma at 5 μM and samples (50 μL) were taken at 0, 15, 30, 60, and 120 min time points for analysis by LC-MS/MS. Peak area ratios were determined from the extracted ion chromatogram and the percent compound remaining at each time point was calculated by the following equation: [drawing 2] where peak area ratiot min is the peak area ratio of control and test compound at t min and peak area ratio0 min is the peak area ratio of control and test compound at zero time point.

[11] = Lipophilicity, shake-flask; type: physicochemical; conditions: 1-octanol/PBS; 1-octanol and PBS (pH 7.4); read-out: logD7.4
Experimental: Compound lipophilicity was determined by Pharmaron, Inc. using the shake-flask method with 1-octanol and PBS (pH 7.4). Each compound was assessed in duplicate (n = 2) at 1 μM in a 96-well plate shaken at 25 °C and 2000 rpm for 2 h. Samples were analyzed by liquid chromatography and tandem mass spectrometry (LC-MS/MS).

[12] = Plasma protein binding by equilibrium dialysis; type: in vitro ADME
Experimental: as §1

[13] = Sprague-Dawley, rat, rat plasma

T2 sequence (P00533 25-1210): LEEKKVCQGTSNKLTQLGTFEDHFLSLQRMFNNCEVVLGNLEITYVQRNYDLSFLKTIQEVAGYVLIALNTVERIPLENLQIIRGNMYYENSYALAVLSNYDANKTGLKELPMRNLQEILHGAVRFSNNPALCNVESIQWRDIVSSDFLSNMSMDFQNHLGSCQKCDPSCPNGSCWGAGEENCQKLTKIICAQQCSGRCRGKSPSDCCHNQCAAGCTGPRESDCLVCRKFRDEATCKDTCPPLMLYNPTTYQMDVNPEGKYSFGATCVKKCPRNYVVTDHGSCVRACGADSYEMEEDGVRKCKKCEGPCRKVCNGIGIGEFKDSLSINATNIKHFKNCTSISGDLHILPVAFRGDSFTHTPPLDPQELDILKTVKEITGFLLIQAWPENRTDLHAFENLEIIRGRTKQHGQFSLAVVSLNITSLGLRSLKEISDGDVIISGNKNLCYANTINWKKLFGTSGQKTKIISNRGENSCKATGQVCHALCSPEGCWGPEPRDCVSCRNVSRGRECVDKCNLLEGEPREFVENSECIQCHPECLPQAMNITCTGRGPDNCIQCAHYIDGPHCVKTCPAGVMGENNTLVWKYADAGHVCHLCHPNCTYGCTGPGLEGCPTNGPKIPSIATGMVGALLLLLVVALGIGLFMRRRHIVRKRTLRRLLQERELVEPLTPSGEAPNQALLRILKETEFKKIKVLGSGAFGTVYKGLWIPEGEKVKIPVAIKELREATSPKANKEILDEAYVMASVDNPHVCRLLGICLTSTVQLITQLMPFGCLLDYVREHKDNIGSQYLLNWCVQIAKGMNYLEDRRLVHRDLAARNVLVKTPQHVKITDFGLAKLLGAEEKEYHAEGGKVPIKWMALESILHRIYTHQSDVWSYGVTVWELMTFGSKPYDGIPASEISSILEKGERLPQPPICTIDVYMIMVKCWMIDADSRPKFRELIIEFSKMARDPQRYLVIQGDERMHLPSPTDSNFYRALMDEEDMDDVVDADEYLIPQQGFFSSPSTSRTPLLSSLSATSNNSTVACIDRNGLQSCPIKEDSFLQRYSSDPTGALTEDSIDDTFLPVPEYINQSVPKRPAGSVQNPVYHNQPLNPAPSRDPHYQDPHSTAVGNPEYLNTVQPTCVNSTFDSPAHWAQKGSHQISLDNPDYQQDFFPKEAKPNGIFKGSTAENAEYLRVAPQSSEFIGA
T1 sequence (P00533 with tags, fused parts or gaps DEL746-750): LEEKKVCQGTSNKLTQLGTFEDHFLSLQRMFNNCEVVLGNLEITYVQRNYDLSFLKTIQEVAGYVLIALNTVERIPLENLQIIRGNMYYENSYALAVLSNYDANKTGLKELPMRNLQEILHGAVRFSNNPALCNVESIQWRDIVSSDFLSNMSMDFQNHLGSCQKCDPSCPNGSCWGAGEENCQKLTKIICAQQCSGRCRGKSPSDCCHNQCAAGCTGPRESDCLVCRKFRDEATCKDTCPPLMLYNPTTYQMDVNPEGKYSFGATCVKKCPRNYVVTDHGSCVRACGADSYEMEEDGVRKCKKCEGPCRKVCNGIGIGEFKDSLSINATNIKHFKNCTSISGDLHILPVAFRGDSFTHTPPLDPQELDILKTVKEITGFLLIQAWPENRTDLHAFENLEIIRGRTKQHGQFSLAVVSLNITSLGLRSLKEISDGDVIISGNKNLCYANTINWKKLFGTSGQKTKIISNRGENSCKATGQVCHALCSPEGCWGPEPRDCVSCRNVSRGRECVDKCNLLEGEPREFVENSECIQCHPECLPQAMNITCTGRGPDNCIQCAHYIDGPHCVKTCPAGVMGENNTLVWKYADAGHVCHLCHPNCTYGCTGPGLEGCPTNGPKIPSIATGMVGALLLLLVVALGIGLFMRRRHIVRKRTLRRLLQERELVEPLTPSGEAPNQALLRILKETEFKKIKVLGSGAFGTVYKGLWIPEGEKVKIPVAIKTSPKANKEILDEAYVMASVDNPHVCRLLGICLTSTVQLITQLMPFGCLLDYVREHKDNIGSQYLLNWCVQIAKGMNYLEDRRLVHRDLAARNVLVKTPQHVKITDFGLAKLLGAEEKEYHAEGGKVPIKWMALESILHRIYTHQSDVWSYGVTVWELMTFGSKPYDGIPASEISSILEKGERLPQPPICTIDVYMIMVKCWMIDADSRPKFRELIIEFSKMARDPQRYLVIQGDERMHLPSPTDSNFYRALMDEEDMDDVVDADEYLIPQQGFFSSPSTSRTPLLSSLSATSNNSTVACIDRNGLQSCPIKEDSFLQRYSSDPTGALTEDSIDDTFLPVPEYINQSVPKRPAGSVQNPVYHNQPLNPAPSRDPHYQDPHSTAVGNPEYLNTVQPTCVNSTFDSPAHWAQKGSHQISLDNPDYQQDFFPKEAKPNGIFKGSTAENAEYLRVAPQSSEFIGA

Work on COc1cc2ncnc(Nc3cccc(Cl)c3F)c2cc1OCCON1CCOCC1 [Compound 7, N-(3-Chloro-2-fluorophenyl)-7-methoxy-6-(2-(morpholinooxy)ethoxy)quinazolin-4-amine] yielded an AUC(0-inf) at 24 h [1] of 89 ng·h/mL, a half-life at 24 h [1] of 33.6 min and an IC50 [2] of 17 nM. For the same compound, the Kd [3] was < 0.2 nM, the Kd [4] was < 0.2 nM and the recovery at 6 h, 5 μM ([5]; CD-1, mouse, mouse plasma) was 98.4%. For the same compound, the remaining at 6 h, 5 μM ([5]; CD-1, mouse, mouse plasma) was 102%, the fraction unbound at 6 h, 5 μM ([5]; CD-1, mouse, mouse plasma, read-out: %Bound (converted)) was 0.0665 and the fraction unbound at 6 h, 5 μM ([5]; CD-1, plasma, mouse, 5 μM, read-out: fu,plasma% / %Unbound) was 0.0665. The efflux ratio at 2 h, 1 µM [6] was 1.1, the efflux ratio at 2 h, 1 μM [6] was 1.06 and the Papp A→B at 2 h, 1 µM ([6]; 1 μM, 2 h) was 12.6 ×10⁻⁶ cm/s. The Papp A→B at 2 h, 1 μM ([6]; 1 μM, 2 h) was 12.6 ×10⁻⁶ cm/s, the Papp B→A at 2 h, 1 µM ([6]; 1 μM, 2 h) was 13.3 ×10⁻⁶ cm/s and the Papp B→A at 2 h, 1 μM ([6]; 1 μM, 2 h) was 13.3 ×10⁻⁶ cm/s. The recovery at 2 h, 1 μM ([7]; read-out: Recovery% (AP-BL)) was 73.5%, the recovery at 2 h, 1 μM ([7]; read-out: Recovery% (BL-AP)) was 76.4% and the “Remaining Percentage” value ([8]; +Cofactors, 15 min) was 43.79%. For the same compound, the “Remaining Percentage” value ([8]; +Cofactors, 30 min) was 21.93%, the “Remaining Percentage” value ([8]; +Cofactors, 45 min) was 10.84% and the “Remaining Percentage” value ([8]; +Cofactors, 60 min) was 7.20%. The “Remaining Percentage” value ([8]; -Cofactors, 60 min) was 87.34%, the half-life at 1 h, 1 µM ([8]; human, liver microsomes, read-out: LM t1/2) was 14 min and the microsomal CLint at 1 h, 1 µM ([8]; human, liver microsomes, read-out: LMClint) was 99 µL/min/mg. The “Remaining Percentages” value ([9]; 15 min) was 96.13%, the “Remaining Percentages” value ([9]; 30 min) was 87.34% and the “Remaining Percentages” value ([9]; 60 min) was 76.27%. The “Remaining Percentages” value ([9]; 90 min) was 61.58%, the “Remaining Percentages” value ([9]; 120 min) was 45.68% and the hepatocyte CLint at 2 h, 1 µM ([9]; human, hepatocytes) was 13 µL/min/1e6 cells. For the same compound, the half-life at 2 h, 1 µM ([9]; human, hepatocytes, read-out: HEP t1/2) was 108 min, the “Remaining Percentages” value ([10]; 15 min) was 91.34% and the “Remaining Percentages” value ([10]; 30 min) was 93.84%. For the same compound, the “Remaining Percentages” value ([10]; 60 min) was 93.29%, the “Remaining Percentages” value ([10]; 120 min) was 95.67% and the t1/2 ([10]; ∞ = no degradation) was “∞”. The logD at 2 h, 1 µM [11] was 3.4, the fraction unbound at 6 h, 5 μM ([12]; Sprague-Dawley, rat, plasma, 5 μM, read-out: fu,plasma% / %Unbound) was 0.105 and the recovery at 6 h, 5 μM [12, 13] was 110%. For the same compound, the remaining at 6 h, 5 μM [12, 13] was 101%, the fraction unbound at 6 h, 5 μM ([12]; Sprague-Dawley, rat, rat plasma, read-out: %Bound (converted)) was 0.105 and the recovery at 6 h, 5 μM ([12]; human, human plasma) was 98.9%. For the same compound, the remaining at 6 h, 5 μM ([12]; human, human plasma) was 99.4%, the fraction unbound at 6 h, 5 μM ([12]; human, human plasma, read-out: fu,plasma% / %Unbound (converted)) was 0.0412 and the fraction unbound at 6 h, 5 μM ([12]; plasma, human, 5 μM, read-out: fu,plasma% / %Unbound (converted)) was 0.0412.

Source: publication PMC10683025, “Discovery of a Hydroxylamine-Based Brain-Penetrant EGFR Inhibitor for Metastatic Non-Small-Cell Lung Cancer” (Journal of Medicinal Chemistry, 2023)
